These results are taken from ChEMBL document CHEMBL5104162, “Potent inhibitory activity of hydroxylated 2-benzylidene-3,4-dihydronaphthalen-1(2H)-ones on LPS-stimulated reactive oxygen species production in RAW 264.7 macrophages” (Bioorg Med Chem Lett, 2022).

What is called viability is a read-out of living cells in per cent, often relative to untreated cells. As usually defined, the IC50 is the point on the concentration scale where inhibition reaches its midpoint. High values mean weaker potency in that assay, low ones greater potency in that assay.

Bounds are passed on as bounds.

A short description of data set [1]: Cytotoxicity against mouse RAW264.7 cells assessed as cell viability at 10 uM by MTS assay relative to control.
The next data set deals with RAW264.7. Description: Inhibition of ROS production in LPS-induced mouse RAW264.7 cells. It counts as functional, cell-based.

Consider `O=C1/C(=C/c2cccc(F)c2)CCc2ccc(O)cc21`, for which the viability at 10 µM in data set [1] is > 90%. Further, the IC50 in the data set on RAW264.7 was determined as 0.83 µM.

Regarding `O=C1/C(=C/c2cccnc2)CCc2cc(O)ccc21`, in data set [1], the viability at 10 µM was > 90%. This compound also displayed an IC50 with RAW264.7 of 2.03 µM.

As for `O=C1/C(=C/c2ccccc2F)CCc2cc(O)ccc21`, the viability at 10 µM in data set [1] was > 90%. Also, in the data set with RAW264.7, inhibition was half-maximal at 1.74 µM (IC50).

For the compound `O=C1/C(=C/c2cccc(O)c2)CCc2ccc(O)cc21`, in data set [1], the viability at 10 µM was > 90%. For the same compound, the concentration for half-maximal inhibition (IC50) in the data set with RAW264.7 is 0.81 µM.

Regarding `O=C1/C(=C/c2ccc(Br)cc2)CCc2ccc(O)cc21`, the viability at 10 µM in data set [1] was > 90%. In the data set with RAW264.7, this compound registered an IC50 of 0.8 µM.

As for `O=C1/C(=C/c2ccccc2OC(F)(F)F)CCc2c(O)cccc21`, the viability at 10 µM in data set [1] was < 90%.

Turning to `O=C1/C(=C/c2ccc(OC(F)(F)F)cc2)CCc2c(O)cccc21`, the viability at 10 µM in data set [1] is < 90%.

Take `O=C1/C(=C/c2ccc(O)cc2)CCc2ccc(O)cc21`: the viability at 10 µM in data set [1] was < 90%.

On to `O=C1/C(=C/c2cccnc2)CCc2c(O)cccc21`, for which, in data set [1], the viability at 10 µM was > 90%. Moreover, the concentration for half-maximal inhibition (IC50) in the data set with RAW264.7 is 2.95 µM.

Turning to `O=C1/C(=C/c2ccccc2C(F)(F)F)CCc2c(O)cccc21`, the viability at 10 µM in data set [1] is > 90%. For the same compound, in the data set with RAW264.7, half-maximal inhibition (IC50) was put at 3.83 µM.

`O=C1/C(=C/c2ccccc2O)CCc2c(O)cccc21`: in data set [1], the viability at 10 µM was < 90%.

Turning to `O=C1/C(=C/c2ccc(Br)cc2)CCc2cc(O)ccc21`, the viability at 10 µM in data set [1] was > 90%. Moreover, the concentration for half-maximal inhibition (IC50) in the data set with RAW264.7 is 1.52 µM.

For the compound `O=C1/C(=C/c2cccc(F)c2)CCc2c(O)cccc21`, the viability at 10 µM in data set [1] is < 90%.

`O=C1/C(=C/c2cccc(Br)c2)CCc2ccc(O)cc21`: the viability at 10 µM in data set [1] is > 90%. The midpoint of inhibition in the data set on RAW264.7, the IC50, lay at 0.48 µM.

Regarding `O=C1/C(=C/c2ccccn2)CCc2cc(O)ccc21`, the viability at 10 µM in data set [1] is > 90%. Further, in the data set with RAW264.7, the concentration for half-maximal inhibition (IC50) was > 10 µM.

With `O=C1/C(=C/c2ccc(F)cc2)CCc2c(O)cccc21`, the viability at 10 µM in data set [1] was < 90%.

In the case of `O=C1/C(=C/c2ccccc2OC(F)(F)F)CCc2ccc(O)cc21`, the viability at 10 µM in data set [1] is > 90%. Inhibition with RAW264.7 was half-maximal at 0.42 µM (IC50).

As to `O=C1/C(=C/c2ccccc2O)CCc2cc(O)ccc21`, in data set [1], the viability at 10 µM was > 90%. The compound further displayed a half-inhibitory concentration (IC50) in the data set with RAW264.7 of 0.55 µM.

With `O=C1/C(=C/c2ccc(C(F)(F)F)cc2)CCc2c(O)cccc21`, in data set [1], the viability at 10 µM is < 90%.

On to `O=C1/C(=C/c2ccc(F)cc2)CCc2cc(O)ccc21`, for which, in data set [1], the viability at 10 µM was > 90%. In the data set with RAW264.7, this compound showed a half-inhibitory concentration (IC50) of 1.37 µM.

Take `O=C1/C(=C/c2ccccc2)CCc2cc(O)ccc21`: the viability at 10 µM in data set [1] was > 90%. Besides, 1.32 µM corresponded to half-maximal inhibition in the data set with RAW264.7 (IC50).

On to `O=C1/C(=C/c2cccc(OC(F)(F)F)c2)CCc2cc(O)ccc21`, for which the viability at 10 µM in data set [1] was > 90%. In addition, 0.52 µM corresponded to half-maximal inhibition with RAW264.7 (IC50).

With `O=C1/C(=C/c2ccc(O)cc2)CCc2c(O)cccc21`, the viability at 10 µM in data set [1] is < 90%.

With `O=C1/C(=C/c2ccccc2)CCc2ccc(O)cc21`, in data set [1], the viability at 10 µM is > 90%. Further, the half-maximal inhibitory concentration (IC50) in the data set with RAW264.7 was 0.71 µM.

For the compound `O=C1/C(=C/c2ccccc2F)CCc2c(O)cccc21`, the viability at 10 µM in data set [1] was < 90%.

For `O=C1/C(=C/c2cccc(Br)c2)CCc2cc(O)ccc21`, the viability at 10 µM in data set [1] is > 90%. The IC50 in the data set with RAW264.7 was 1.14 µM.

Turning to `O=C1/C(=C/c2ccccc2C(F)(F)F)CCc2cc(O)ccc21`, the viability at 10 µM in data set [1] was < 90%.

In the case of `O=C1/C(=C/c2ccc(C(F)(F)F)cc2)CCc2cc(O)ccc21`, in data set [1], the viability at 10 µM was > 90%. Also, the IC50 with RAW264.7 came out at 3.26 µM.

With `O=C1/C(=C/c2ccccc2Cl)CCc2c(O)cccc21`, the viability at 10 µM in data set [1] is > 90%. The same compound displayed an IC50 with RAW264.7 of 1.28 µM.

`O=C1/C(=C/c2ccc(C(F)(F)F)cc2)CCc2ccc(O)cc21`: the viability at 10 µM in data set [1] was > 90%. Moreover, the IC50 with RAW264.7 is > 10 µM.

For the compound `O=C1/C(=C/c2ccccc2O)CCc2ccc(O)cc21`, the viability at 10 µM in data set [1] is < 90%.

Consider `O=C1/C(=C/c2cccc(C(F)(F)F)c2)CCc2ccc(O)cc21`, for which, in data set [1], the viability at 10 µM was < 90%.

Consider `O=C1/C(=C/c2ccccc2Br)CCc2ccc(O)cc21`, for which the viability at 10 µM in data set [1] is > 90%. In the data set on RAW264.7, this compound showed an IC50 of 0.5 µM.

With `O=C1/C(=C/c2ccc(O)cc2)CCc2cc(O)ccc21`, in data set [1], the viability at 10 µM is < 90%.

As for `O=C1/C(=C/c2cccnc2)CCc2ccc(O)cc21`, in data set [1], the viability at 10 µM was > 90%. The IC50 in the data set with RAW264.7 was found to be 3.04 µM.

On to `O=C1/C(=C/c2ccccc2F)CCc2ccc(O)cc21`, for which the viability at 10 µM in data set [1] is > 90%. Further, half-maximal inhibition in the data set with RAW264.7 (IC50) required 1.35 µM.

Consider `O=C1/C(=C/c2ccccc2Br)CCc2c(O)cccc21`, for which, in data set [1], the viability at 10 µM is > 90%. The same compound had an IC50 in the data set with RAW264.7 of 1.24 µM.

With `O=C1/C(=C/c2cccc(F)c2)CCc2cc(O)ccc21`, the viability at 10 µM in data set [1] is > 90%. Besides, it took 1.23 µM to reach half-maximal inhibition in the data set on RAW264.7 (IC50).

As for `O=C1/C(=C/c2cccc(O)c2)CCc2c(O)cccc21`, in data set [1], the viability at 10 µM was < 90%.

As to `O=C1/C(=C/c2ccncc2)CCc2c(O)cccc21`, the viability at 10 µM in data set [1] was > 90%. In the data set with RAW264.7, this compound came in with an IC50 of 4.17 µM.

With `O=C1/C(=C/c2ccc(Cl)cc2)CCc2cc(O)ccc21`, in data set [1], the viability at 10 µM was > 90%. This compound returned an IC50 in the data set on RAW264.7 of 2.48 µM.

For the compound `O=C1/C(=C/c2cccc(OC(F)(F)F)c2)CCc2ccc(O)cc21`, in data set [1], the viability at 10 µM is < 90%.

On to `O=C1/C(=C/c2cccc(Cl)c2)CCc2c(O)cccc21`, for which the viability at 10 µM in data set [1] was < 90%.

Regarding `O=C1/C(=C/c2ccccc2Br)CCc2cc(O)ccc21`, in data set [1], the viability at 10 µM was > 90%. Moreover, the concentration for half-maximal inhibition (IC50) in the data set with RAW264.7 worked out at 1.07 µM.

As to `O=C1/C(=C/c2ccncc2)CCc2ccc(O)cc21`, the viability at 10 µM in data set [1] was > 90%. Inhibition with RAW264.7 was half-maximal at 2.34 µM (IC50).

For `O=C1/C(=C/c2ccccc2Cl)CCc2cc(O)ccc21`, in data set [1], the viability at 10 µM is > 90%. This compound also came in with an IC50 with RAW264.7 of 1.91 µM.

With `O=C1/C(=C/c2ccccc2)CCc2c(O)cccc21`, the viability at 10 µM in data set [1] is < 90%.

In the case of `O=C1/C(=C/c2ccc(Br)cc2)CCc2c(O)cccc21`, the viability at 10 µM in data set [1] was < 90%.

For the compound `O=C1/C(=C/c2ccc(OC(F)(F)F)cc2)CCc2ccc(O)cc21`, the viability at 10 µM in data set [1] was > 90%. This compound also had an IC50 in the data set on RAW264.7 of 0.98 µM.

Take `O=C1/C(=C/c2cccc(Cl)c2)CCc2ccc(O)cc21`: the viability at 10 µM in data set [1] was > 90%. For the same compound, half-maximal inhibition in the data set on RAW264.7 (IC50) required 0.21 µM.

In the case of `O=C1/C(=C/c2cccc(O)c2)CCc2cc(O)ccc21`, the viability at 10 µM in data set [1] is > 90%. Besides, the IC50 in the data set with RAW264.7 amounted to 3.51 µM.

With `O=C1/C(=C/c2cccc(C(F)(F)F)c2)CCc2c(O)cccc21`, the viability at 10 µM in data set [1] was > 90%. This compound also came in with an IC50 with RAW264.7 of 1.97 µM.

For `O=C1/C(=C/c2ccccn2)CCc2ccc(O)cc21`, in data set [1], the viability at 10 µM was < 90%.

Turning to `O=C1/C(=C/c2ccccc2OC(F)(F)F)CCc2cc(O)ccc21`, the viability at 10 µM in data set [1] was < 90%.

For `O=C1/C(=C/c2cccc(Br)c2)CCc2c(O)cccc21`, the viability at 10 µM in data set [1] was > 90%. In the data set with RAW264.7, this compound came in with an IC50 of 1.7 µM.

For `O=C1/C(=C/c2cccc(Cl)c2)CCc2cc(O)ccc21`, the viability at 10 µM in data set [1] was > 90%. The same compound yielded an IC50 in the data set with RAW264.7 of 1.75 µM.

Regarding `O=C1/C(=C/c2ccccc2C(F)(F)F)CCc2ccc(O)cc21`, in data set [1], the viability at 10 µM was > 90%. Half-maximal inhibition in the data set on RAW264.7 (IC50) required 1.02 µM.

In the case of `O=C1/C(=C/c2ccc(OC(F)(F)F)cc2)CCc2cc(O)ccc21`, in data set [1], the viability at 10 µM was > 90%. In the data set with RAW264.7, this compound yielded an IC50 of 1.35 µM.

With `O=C1/C(=C/c2ccc(Cl)cc2)CCc2c(O)cccc21`, the viability at 10 µM in data set [1] is < 90%.

Regarding `O=C1/C(=C/c2cccc(OC(F)(F)F)c2)CCc2c(O)cccc21`, the viability at 10 µM in data set [1] is < 90%.

As for `O=C1/C(=C/c2ccc(Cl)cc2)CCc2ccc(O)cc21`, the viability at 10 µM in data set [1] was > 90%. The half-inhibitory concentration (IC50) in the data set with RAW264.7 stood at 1.1 µM.

Regarding `O=C1/C(=C/c2cccc(C(F)(F)F)c2)CCc2cc(O)ccc21`, the viability at 10 µM in data set [1] was > 90%. Moreover, inhibition with RAW264.7 was half-maximal at 0.18 µM (IC50).

For `O=C1/C(=C/c2ccccn2)CCc2c(O)cccc21`, the viability at 10 µM in data set [1] is > 90%. Moreover, the midpoint of inhibition in the data set with RAW264.7, the IC50, lay at 0.74 µM.

Consider `O=C1/C(=C/c2ccccc2Cl)CCc2ccc(O)cc21`, for which the viability at 10 µM in data set [1] is > 90%. For the same compound, in the data set with RAW264.7, 0.27 µM corresponded to half-maximal inhibition (IC50).

In the case of `O=C1/C(=C/c2ccc(F)cc2)CCc2ccc(O)cc21`, in data set [1], the viability at 10 µM was > 90%. The same compound registered an IC50 with RAW264.7 of 0.84 µM.
